These are literature values, as cited in patent publication US6472362B1, “Detergent compositions in tablet form” (Unilever Home & Personal Care USA division of Conopco, Inc., priority 1997, dated 2002).

Where [1] appears, read: other common materials, at 200° C. (so in the source).

Like-named read-outs stand apart in the source and are kept apart here.

Turning to `NC(N)=O` [Urea], for the setting “at 20° C.”, the solubility in water result is reported as “exceeding 100 gms per 100 ml water”. The “Water Solubility (g/100 g)” value (highly water-soluble materials, saturated solution in 100 grams of water at 20° C.) is given as greater than 100 g/100 g. Take `O=P(O)(O)OP(=O)(O)OP(=O)(O)O` [Sodium tripolyphosphate anhydrous]: the “Water Solubility (g/100 g)” value under setting [1] is given as 15 g/100 g. As for `O=BO[O-].[Na+]` [Sodium perborate anhydrous], under setting [1], the “Water Solubility (g/100 g)” value was 3.7 g/100 g.
